Test results from PubChem BioAssay AID651890 (Broad Institute, 2012).

Test system: T. cruzi Tulahuen amastigotes in L-6 cells, CPRG absorbance
Test: T. cruzi amastigote growth inhibition, dose response, Tulahuen strain, L-6 host cells, dry powder (AID 651890)

C[C@@H]1CN([C@@H](C)CO)C(=O)c2cccc(NC(=O)c3ccncc3)c2O[C@H]1CN(C)Cc1ccc(Oc2ccccc2)cc1
IC50: 39 nM
